Experimental data: ChEMBL document CHEMBL4725292 (J Med Chem, 2020)

Experiments:
[1] = tested on: Blood; assay: Inhibition of LPS-induced IL6 production in human whole blood preincubated for 30 mins followed by LPS addition and measured after overnight incubation by mesoscale assay; type: functional, tissue-based
[2] = tested on: THP-1; assay: Antiproliferative activity against human THP-1 cells after 72 hrs by cell titer glo assay; type: functional, cell-based; conditions: THP-1, 72 h
[3] = tested on: HL-60; assay: Antiproliferative activity against human HL-60 cells after 72 hrs by cell titer glo assay; type: functional, cell-based; conditions: HL-60, 72 h
[4] = tested on: Blood; assay: Inhibition of LPS-induced MCP1 production in human whole blood preincubated for 30 mins followed by LPS addition and measured after overnight incubation by mesoscale assay; type: functional, tissue-based
[5] = tested on: Blood; assay: Inhibition of LPS-induced TNFalpha production in human whole blood preincubated for 30 mins followed by LPS addition and measured after overnight incubation by mesoscale assay; type: functional, tissue-based
[6] = tested on: MV4-11; assay: Antiproliferative activity against human MV4-11 cells after 72 hrs by cell titer glo assay; type: functional, cell-based; conditions: MV4-11, 72 h
[7] = Lipophilicity, logD of the compound at pH 7.4 by chromatographic method; type: physicochemical; conditions: buffer
[8] = biological target: Bromodomain-containing protein 4 (Homo sapiens, UniProt O60885, Y390A); assay: Displacement of Alexa Fluor 647 labelled ligand from His6-thr-tagged BRD4 BD1 (1 to 477 residues)/BD2 Y390A mutant (unknown origin) after 30 mins by TR-FRET assay
[9] = biological target: Bromodomain-containing protein 4 (Homo sapiens, UniProt O60885, Y97A); assay: Displacement of Alexa Fluor 647 labelled ligand from His6-tagged BRD4 BD2 (1 to 477 residues)/BD1 Y97A mutant (unknown origin) after 30 mins by TR-FRET assay
[10] = Selectivity index, […] for His6-thr-tagged BRD4 BD1 (1 to 477 residues)/BD2 Y390A mutant (unknown origin) to pIC50 for LPS-induced MCP1 production in PBMC (unknown origin)
[11] = Inhibition of LPS-induced MCP1 production in PBMC (unknown origin); type: functional, tissue-based
[12] = Permeability of the compound in pH 7.4 phosphate buffer measured after 3 hrs by artificial membrane permeability assay based HPLC analysis; type: ADME; conditions: for Papp at 3 h: PAMPA, pH 7.4, read-out: permeability
[13] = tested on: Bromodomain-containing protein 4 (Homo sapiens), O60885 [UNDEFINED MUTATION]; assay: Selectivity index, […] for His6-thr-tagged BRD4 BD1 (1 to 477 residues)/BD2 Y390A mutant (unknown origin) to pIC50 for His6-tagged BRD4 BD2 (1 to 477 residues)/BD1 Y97A mutant (unknown origin)
[14] = biological target: T1, ATPase family AAA domain-containing protein 2 (Homo sapiens, UniProt Q6PL18); assay: Inhibition of ATAD2 (unknown origin) by TR-FRET assay
T1 sequence (Q6PL18 whole entry): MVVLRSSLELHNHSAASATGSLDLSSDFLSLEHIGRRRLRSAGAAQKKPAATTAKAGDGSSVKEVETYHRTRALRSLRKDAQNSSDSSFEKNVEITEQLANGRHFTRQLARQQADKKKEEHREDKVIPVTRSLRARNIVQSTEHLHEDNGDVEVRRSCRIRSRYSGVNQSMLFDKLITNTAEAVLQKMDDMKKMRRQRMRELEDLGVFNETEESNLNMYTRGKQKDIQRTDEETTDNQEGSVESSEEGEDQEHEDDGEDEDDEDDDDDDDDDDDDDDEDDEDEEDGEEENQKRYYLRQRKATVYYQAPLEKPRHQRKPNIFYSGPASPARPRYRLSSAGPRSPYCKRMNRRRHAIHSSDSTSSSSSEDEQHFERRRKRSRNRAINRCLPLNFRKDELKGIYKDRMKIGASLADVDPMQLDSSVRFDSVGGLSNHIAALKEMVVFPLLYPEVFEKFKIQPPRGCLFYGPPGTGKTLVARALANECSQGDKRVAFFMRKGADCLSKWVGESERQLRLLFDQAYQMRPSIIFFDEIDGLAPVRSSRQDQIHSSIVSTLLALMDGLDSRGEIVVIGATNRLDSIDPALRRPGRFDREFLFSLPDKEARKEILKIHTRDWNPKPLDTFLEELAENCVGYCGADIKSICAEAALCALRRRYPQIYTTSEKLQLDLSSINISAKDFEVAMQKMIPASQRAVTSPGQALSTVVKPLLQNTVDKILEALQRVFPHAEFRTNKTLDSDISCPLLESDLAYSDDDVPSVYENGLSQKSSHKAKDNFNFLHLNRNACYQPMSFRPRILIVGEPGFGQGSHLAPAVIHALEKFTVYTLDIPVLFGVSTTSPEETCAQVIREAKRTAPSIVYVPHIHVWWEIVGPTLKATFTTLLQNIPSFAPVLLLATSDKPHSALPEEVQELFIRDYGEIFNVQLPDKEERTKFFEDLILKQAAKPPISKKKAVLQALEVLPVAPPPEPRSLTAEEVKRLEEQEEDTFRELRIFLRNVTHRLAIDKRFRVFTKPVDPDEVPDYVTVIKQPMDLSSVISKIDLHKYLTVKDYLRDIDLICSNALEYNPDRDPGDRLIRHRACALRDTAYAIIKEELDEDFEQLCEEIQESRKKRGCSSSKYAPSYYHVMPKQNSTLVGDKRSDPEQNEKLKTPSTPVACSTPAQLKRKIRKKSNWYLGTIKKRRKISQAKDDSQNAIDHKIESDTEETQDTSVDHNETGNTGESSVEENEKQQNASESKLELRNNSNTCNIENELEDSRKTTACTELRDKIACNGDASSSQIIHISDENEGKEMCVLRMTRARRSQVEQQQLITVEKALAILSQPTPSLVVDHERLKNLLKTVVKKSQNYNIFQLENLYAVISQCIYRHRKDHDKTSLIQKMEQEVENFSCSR

chromatographic logD [7]	IC50 [8] [µM]	IC50 [9] [µM]	Selectivity Index [13]	IC50 [14] [µM]	SMILES	also measured
					COc1cc2c(cc1-c1c(C)noc1C)ncc1[nH]c(=O)n([C@H](C)c3ccccn3)c12	IC50 [1]: 1.03 µM; IC50 [2]: 0.134 µM; IC50 [3]: 0.195 µM; IC50 [4]: 0.3 µM; IC50 [5]: 0.38 µM; IC50 [6]: 0.127 µM
3.12	0.02	12.6			Cc1cc2c(-c3ccco3)cnc(N[C@@H]3CCNC[C@H]3C(=O)NC3CCCCC3)c2[nH]c1=O	Selectivity Index [10]: 10; IC50 [11]: 0.2 µM; permeability ([12]; artificial membrane, pH 7.4, 3 h, 3 h): 1.9 ×10⁻⁶ cm/s
0.85	3.98	> 50.1	> 10	> 39.8	Cc1cc2ccnc(N[C@@H]3CCNC[C@H]3C(=O)N[C@@H]3CCCOC3)c2[nH]c1=O (mixture of isomers)	
2.36	1.58	> 50.1	> 30	> 39.8	Cc1cc2ccnc(N[C@@H]3CCNC[C@H]3C(=O)NCC3CCCC3)c2[nH]c1=O (mixture of isomers)	
0.71	2.51	12.6	5	> 39.8	Cc1cc2ccnc(N[C@@H]3CCNC[C@H]3C(=O)NC3CCOCC3)c2[nH]c1=O (mixture of isomers)	
1.6	2	> 50.1	> 25	> 39.8	Cc1cc2ccnc(N[C@@H]3CCNC[C@H]3C(=O)NCC(C)C)c2[nH]c1=O (mixture of isomers)	
0.98	25.1	> 50.1	> 2	> 39.8	Cc1cc2ccnc(N[C@@H]3CCNC[C@H]3C(=O)N[C@H]3CCCOC3)c2[nH]c1=O (mixture of isomers)	
1.08	7.94	31.6	4	> 39.8	CO[C@@H](C)CNC(=O)[C@@H]1CNCC[C@H]1Nc1nccc2cc(C)c(=O)[nH]c12 (mixture of isomers)	
1.05	3.16	> 50.1	> 15	> 39.8	Cc1cc2ccnc(N[C@@H]3CCNC[C@H]3C(=O)NCC3CC3)c2[nH]c1=O (mixture of isomers)	
2.52	3.16	31.6	10		Cc1cc2cccc(N[C@@H]3CCNC[C@H]3C(=O)NC3CCCCC3)c2[nH]c1=O (racemic)	Papp at 3 h [12]: < 0.3 ×10⁻⁶ cm/s
	0.0398	25.1			Cc1cc2c(-c3ccco3)cnc(N[C@@H]3CCNC[C@H]3C(=O)NC3CCCCC3)c2[nH]c1=O (racemic)	logD [7]: 3.14; Papp at 3 h [12]: 3.8 ×10⁻⁶ cm/s
2.03	0.794	> 50.1	> 60	> 39.8	Cc1cc2ccnc(N[C@@H]3CCNC[C@H]3C(=O)NC3CCCCC3)c2[nH]c1=O (racemic)	Papp at 3 h [12]: < 0.3 ×10⁻⁶ cm/s
3.66	0.316	15.8	50		Cc1cc2c(-c3ccco3)ccc(N[C@@H]3CCNC[C@H]3C(=O)NC3CCCCC3)c2[nH]c1=O (racemic)	Papp at 3 h [12]: < 1 ×10⁻⁶ cm/s
1.87	2.51	39.8	15	> 39.8	Cc1cc2ccnc(N[C@@H]3CCNC[C@H]3C(=O)NC3CCCC3)c2[nH]c1=O (relative stereo)	
1.88	5.01	> 50.1	> 10	> 39.8	Cc1cc2ccnc(N[C@@H]3CCNC[C@@H]3C(=O)NC3CCCCC3)c2[nH]c1=O (relative stereo)	
5.13	0.1	31.6	316		Cc1ccsc1-c1cnc(N[C@@H]2CCN(C)C[C@H]2C(=O)NC2CCCCC2)c2[nH]c(=O)c(C)cc12 (relative stereo)	
1.89	5.01	> 50.1	> 10	> 39.8	Cc1cc2ccnc(N[C@@H]3CCNC[C@H]3C(=O)N[C@H](C)C(C)C)c2[nH]c1=O (relative stereo)	
2.51	1.26	> 50.1	> 40		Cc1cncc(-c2cnc(N[C@@H]3CCNC[C@H]3C(=O)NC3CCCCC3)c3[nH]c(=O)c(C)cc23)c1 (relative stereo)	
